Earlier results as cited in PMC12281572.
“And” between values parts separate entries of the source, which are not always exact repeats. Identical values can stand only once.

Assay: FTIR, 4-fluorophenol as donor (the pK_BHX database, per the paper)
Conditions: CCl4; 25 C

Row | pK_BHX (log10 Kf of the 1:1 H-bond complex with 4-fluorophenol, by FTIR) | SMILES
1 | 0.97 log units | CC(C)(C)OC(=O)c1ccccc1
2 | 2.22 log units | CCC(=O)N(C1CCCCC1)C1CCCCC1
3 | 1.92 log units | C=CCN(C)C
4 | 0.3 log units | CC(C)SC(C)C
5 | 2.07 log units | CCN(CC)C(=O)N(c1ccccc1)c1ccccc1
6 | -0.85 log units | CC(C)=C(C)C
7 | 1.47 log units | CCN(C)Cc1ccccc1
8 | -0.22 log units | CSCSC
9 | 1.45 log units | CCOC(=O)N(c1ccccc1)c1ccccc1
10 | 1.32 log units | CN1CCN(C)C1=S
11 | 0.25 log units | CCSCC
12 | 2.19 log units | CN1CCCC1
13 | 1.8 log units | CN(C)C=Nc1ccc(F)cc1
14 | 0.23 log units | CCN(CC)CC(F)(F)F
15 | 2.13 log units | C(=Nc1ccccc1)Nc1ccccc1
16 | -0.33 log units | CC(C)(C)I
17 | 1.7 log units and 1.52 log units | CC(=O)c1ccc(N=CN(C)C)cc1
18 | 2.04 log units | CCCCN1CCCC1
19 | 1.61 log units | CC(=O)c1ccc(N2CCOCC2)cc1
20 | 2.92 log units | CN(C)C=NC(=O)N(C)C
21 | 1.72 log units | NC1CC1
22 | 0.4 log units | CC(C)(C)SC(C)(C)C
23 | 1.99 log units | CN=C(c1ccc([N+](=O)[O-])cc1)N(C)C
24 | 1.08 log units | CC(C)(C)C(=O)C12CC3CC(CC(C3)C1)C2
25 | 2.59 log units | CC1=NCCC1
26 | 1.42 log units | CC(C)(C)c1ccccn1
27 | 1.96 log units | CNC=O

Row | pK_BHX (log10 Kf of the 1:1 H-bond complex with 4-fluorophenol, by FTIR) | SMILES
28 | 0.73 log units | CCSC(=O)OC
29 | 1.82 log units | CCN(CC)c1ccc(C(C)=O)cc1
30 | -0.67 log units | C=CCCCCC
31 | 2.17 log units | CCN(C)C
32 | -0.24 log units | CN(C)c1cccc2cccc(N(C)C)c12
33 | 1.43 log units | CN(C)C=Nc1ccc(C(F)(F)F)cc1
34 | 1.97 log units | Cc1cccc(CN)c1
35 | 1.45 log units | CCOC(=O)c1ccc(N(C)C)cc1
36 | 1.1 log units | CN(C)C=NC(=S)SCc1ccccc1
37 | -0.07 log units | Cc1cc(C)c(C)c(C)c1C
38 | 1.84 log units | Cn1cccn1
39 | 0.9 log units | CCN(CC)c1ccc([N+](=O)[O-])cc1
40 | 0.35 log units | O=COc1ccccc1
41 | 2.46 log units | CN1CN(C)C1=O
42 | 0.16 log units | CCCSC
43 | -0.08 log units | COc1cccc(OC)c1
44 | 1.22 log units | CCCCS(=O)(=O)CCCC
45 | 1.27 log units | CN(C)Cc1cccc(F)c1
46 | 1.17 log units | CCN(CC)S(=O)(=O)N(CC)CC
47 | 2.08 log units | CN(C)C(=O)N(c1ccccc1)c1ccccc1
48 | 1.25 log units | CC(=O)c1ccc(C(C)(C)C)cc1
49 | 1.36 log units | O=C(C1CC1)C1CC1
50 | 0.86 log units | Cc1cccc(C)c1C#N
51 | 2.11 log units | CN1CCCCC1
52 | 1.74 log units | CN(C=O)c1ccccc1
53 | 0.18 log units | CCSC
54 | 2.47 log units | CCN(CC)C(C)=O

Further lines, the compound ahead of its results:

Row | SMILES | pK_BHX (log10 Kf of the 1:1 H-bond complex with 4-fluorophenol, by FTIR)
55 | C1COC1 | 1.36 log units
56 | C1CSCSC1 | -0.06 log units
57 | Cc1ccc2c(c1)CN1CN2Cc2cc(C)ccc21 | -0.26 log units
58 | CN(C)C | 2.13 log units
59 | C#CCCC#C | -0.43 log units
60 | C1=COCCC1 | 0.41 log units
61 | c1ccc(-c2ccnc3c2ccc2c(-c4ccccc4)ccnc23)cc1 | 3.26 log units
62 | Cc1cc(=O)cc(C)o1 | 2.5 log units
63 | CC1CCCO1 (stereo not shown) | 1.34 log units
64 | CCOC(=O)c1ccccc1 | 0.94 log units
65 | CCCCSCCCC | 0.23 log units
66 | O=C(c1ccccc1)c1ccccc1 | 1.07 log units
67 | CCOC(=O)C=Cc1ccccc1 | 1.14 log units
68 | CCN(C)Cc1cccc(F)c1 | 1.14 log units
69 | CCN(C=O)CC | 2.16 log units
70 | CCOS(=O)OCC | 1.07 log units
71 | C1COCCOCCOCCOCCO1 | 1.12 log units
72 | CN(C)C(=O)CCl | 1.74 log units
73 | N#CC1CCCC1 | 0.88 log units
74 | O=C1c2ccccc2-c2ccccc21 | 1.09 log units
75 | CN(C(=Nc1ccc(Br)cc1)c1ccccc1)c1ccc(Br)cc1 | 0.99 log units

Row | SMILES | pK_BHX (log10 Kf of the 1:1 H-bond complex with 4-fluorophenol, by FTIR)
76 | CCOC(=O)OCC | 0.88 log units
77 | CC(=Nc1ccc(C)cc1)N(C)c1ccc(C)cc1 | 1.82 log units
78 | CCC(C)=O | 1.22 log units
79 | COc1ccccc1C(C)=O | 1.34 log units
80 | Fc1cccnc1 | 1.35 log units
81 | C1CCOC1 | 1.28 log units
82 | CC(=Nc1ccc(Br)cc1)N(C)c1ccc(C)cc1 | 1.43 log units
83 | CCCCO | 1.02 log units
84 | c1ccc(-c2ccccn2)nc1 | 1.15 log units
85 | N#Cc1ccc(Br)cc1 | 0.73 log units
86 | NCc1cc(F)cc(F)c1 | 1.28 log units
87 | O=CN1CCOCC1 | 1.93 log units
88 | Fc1ccc(N=C(Nc2ccccc2)c2ccccc2)cc1 | 1.25 log units
89 | c1ccc(Cc2ccccc2)cc1 | -0.41 log units
90 | S=C1CCCCCN1 | 1.6 log units
91 | C(=Nc1ccccc1)c1ccccc1 | 0.87 log units
92 | CC(C)(C)c1cccc(C(C)(C)C)n1 | -0.54 log units
93 | C1C2CC3CC1CC(C2)C31OC12C1CC3CC(C1)CC2C3 (stereo not shown) | 1.44 log units
94 | CC(=O)n1ccnc1 | 1.86 log units
95 | CNCc1ccccc1 | 1.82 log units
96 | COc1ccc(C)cc1 | 0.08 log units

Row | SMILES | pK_BHX (log10 Kf of the 1:1 H-bond complex with 4-fluorophenol, by FTIR)
97 | c1ccc(C(c2ccccc2)c2ccccc2)cc1 | -0.5 log units
98 | CCN1C(=O)C=CC1=O | 0.68 log units
99 | CC(=Nc1ccccc1)N(C)c1ccc(C)cc1 | 1.76 log units
100 | NCc1ccccc1 | 1.84 log units
101 | CC(C)I | -0.37 log units
102 | N#CC12CC3CC(CC(C3)C1)C2 | 1.0 log units
103 | CC(=O)c1cccc(C)c1 | 1.1 log units
104 | CC12CCC(CC1=O)C2(C)C (stereo not shown) | 1.31 log units
105 | O=c1c(-c2ccccc2)c1-c1ccccc1 | 2.3 log units
106 | [O-][n+]1ccccc1 | 2.72 log units
107 | C1CCSCC1 | 0.23 log units
108 | c1cnc2c(c1)ccc1cccnc12 | 3.1 log units
109 | O=C1CCCCCO1 | 1.63 log units
110 | c1ccncc1 | 1.86 log units
111 | CN=C(c1ccc(C)cc1)N(C)C | 2.72 log units
112 | N#Cc1cc(Cl)cc(Cl)c1 | 0.52 log units
113 | c1ccc2nc3ccccc3nc2c1 | 1.22 log units
114 | Ic1ccccc1 | -0.64 log units
115 | c1ccc(C2CC2)cc1 | -0.37 log units
